Measured values reported in ChEMBL document CHEMBL1201862, “PubChem BioAssay data set” (2004).
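Results reflect a 48-hour exposure of cells in 96-well plates to compound at five concentrations. The concentration for 50% growth inhibition is given as GI50.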 Activity calls are given as the source filed them. Rule as the data show it: active = GI50 up to about 1.1 µM and inactive = higher.

Experiments:
Test in all cases: NCI tumour cell line growth inhibition, 48 h
[1] = tested on: EKVX
[2] = tested on: HCT-116
[3] = tested on: HCT-15
[4] = tested on: HT-29
[5] = tested on: IGROV-1
[6] = tested on: K562
[7] = tested on: LOX IMVI
[8] = tested on: MDA-MB-435
[9] = tested on: NCI-H226
[10] = tested on: NCI-H23
[11] = tested on: NCI-H460
[12] = tested on: OVCAR-5
[13] = tested on: OVCAR-8
[14] = tested on: RPMI-8226
[15] = tested on: SK-MEL-2
[16] = tested on: SK-MEL-5
[17] = tested on: SNB-75
[18] = tested on: SW-620
[19] = tested on: HCC 2998
[20] = tested on: SF-539

Structure (SMILES) | GI50 [1] | GI50 [2] | GI50 [3] [µM] | GI50 [4] | GI50 [5] | GI50 [6] | GI50 [7] | GI50 [8] | GI50 [9] | GI50 [10] | GI50 [11] | GI50 [12] | GI50 [13] | GI50 [14] | GI50 [15] | GI50 [16] | GI50 [17] | GI50 [18] | GI50 [19] | GI50 [20]
CC(=O)CSc1c(-c2ccccc2)c(=O)n(-c2ccccc2)c(=S)n1-c1ccccc1 | > 100 µM (inactive) | > 100 µM (inactive) | > 100 | > 100 µM (inactive) | > 100 µM (inactive) | > 100 µM (inactive) | > 100 µM (inactive) | > 100 µM (inactive) | > 100 µM (inactive) | > 100 µM (inactive) | > 100 µM (inactive) | > 100 µM (inactive) | > 100 µM (inactive) | > 100 µM (inactive) | > 100 µM (inactive) | > 100 µM (inactive) | 61.2 µM (inactive) | > 100 µM (inactive) |  | 
O=[N+]([O-])c1cc2c([N+](=O)[O-])cccc2o1 | 2.56 µM (inactive) | 2.72 µM (inactive) | 4.59 | 4.09 µM (inactive) |  |  | 3.66 µM (inactive) | 18 µM (inactive) | 12.6 µM (inactive) | 15.8 µM (inactive) | > 100 µM (inactive) |  | 17 µM (inactive) | 2.85 µM (inactive) | 9.16 µM (inactive) | 16.7 µM (inactive) |  | 2.86 µM (inactive) | 17.6 µM (inactive) | 2.49 µM (inactive)
Cc1ccc2c(ccc3[nH]cc(CNc4ccc(NS(C)(=O)=O)cc4)c32)n1 | 35.4 µM (inactive) | 18.7 µM (inactive) | 38.5 | 28.3 µM (inactive) | 27.8 µM (inactive) | 18.7 µM (inactive) | 20.6 µM (inactive) | 16.8 µM (inactive) | 20.3 µM (inactive) | 18.7 µM (inactive) | 18.9 µM (inactive) | 23.8 µM (inactive) | 25.7 µM (inactive) | 19.1 µM (inactive) | 18.6 µM (inactive) | 18.6 µM (inactive) | 18.8 µM (inactive) | 31.2 µM (inactive) |  | 22.9 µM (inactive)
COc1ccc(C2c3cc4c(cc3OC(N3CCOCC3)C2C)OCO4)cc1 (configuration not stated) | 23.9 µM (inactive) | 20.2 µM (inactive) | 24.5 | 25.8 µM (inactive) | 30.3 µM (inactive) | 12.8 µM (inactive) | 24.1 µM (inactive) | 20.7 µM (inactive) |  | 39 µM (inactive) | 26.1 µM (inactive) | 34.8 µM (inactive) | 34.7 µM (inactive) | 15.3 µM (inactive) | 22.4 µM (inactive) | 22.6 µM (inactive) | 35.9 µM (inactive) | 29.1 µM (inactive) | 22.4 µM (inactive) | 21.4 µM (inactive)
